Experimental data as given in patent US12622898B2, “Methods and compositions for improving bone marrow hematopoietic functions” (SUN YAT-SEN UNIVERSITY, priority 2019, dated 2026).

Tests used:
Pdk3 expression in HSPCs = assay: Pdk3 mRNA levels and immunoblotting in HSCs treated with inhibitors; assay type: cell-based, mouse
Protocol: (§1) The same number of cells from each population to be analyzed were sorted into PBS with 2% FBS. The cells then were washed with PBS and Lysised by RIPA. Equal amounts of protein extracts were fractionated by 12.5% SDS-PAGE and transferred to a PVDF membrane (IPVH00010, Merck Millipore). After blocked with 5% non-fat milk in Tris-buffered saline with Tween-20 (TBST, pH 7.6) for 1 h at room temperature, the membranes were incubated with primary antibodies anti-phospho-PDHE1-A type I (Ser293) (rabbit, 1:1000, ABS204, Merck Millipore), anti-Sphk2 (rabbit, 1:1000, 17096, Proteintech), anti-PDK3 (rabbit, 1:1000, 4970s, Proteintech), or anti-βactin (rabbit, 1:1000, 2118, Cell Signaling Technology), or with primary antibodies anti-PDK3 (rabbit, 1:1000, 12215, Proteintech), anti-β-actin (rabbit, 1:1000, 4970s, Cell Signaling Technology), overnight at 4° C. and then incubated with secondary antibodies (rabbit, 1:10,000, W401B, Promega) for 1 h at room temperature, which was detected by exposure to x-ray film, or by digital imaging with a charge-coupled device camera system (Odyssey Fc). The images shown are representative of images from at least three experiments.

Pdk3 = assay: Knock-down of Pdk3 in HSCs by siRNA; assay type: cell-based, mouse
Protocol: Bone marrow cells were diluted to the indicated concentration in PBS and were seeded into methylcellulose medium M3434 (StemCell Technologies) for CFU-GM, CFU-GEMM, and BFU-E colony formation assays according to the manufacturer's
as §1, with “experiments. […]” for “experiments.”

Molecule	Pdk3 expression in HSPCs (Pdk3 expression in HSPCs)	HSPC activity (myeloerythroid-colony-forming progenitors) (Pdk3; Sphk2 deficient HSCs)	PDH-E1α phosphorylation (Pdk3; control and Sphk2 deficient HSCs, immunoblotting)
CCCCCCCCc1ccc(CCC(N)(CO)CO)cc1 [FTY720]	not	–	–
siRNA: siRNAs (GGACCTGCATCATGAACAATG, SEQ ID NO. 1) against mouse Pdk3 cloned into lentivirus pLKO.1-puro vector	–	compromised	reduced
